From US20200155566A1, “THERAPEUTIC COMBINATION OF A THIRD GENERATION EGFR TYROSINE KINASE INHIBITOR AND A CYCLIN D KINASE INHIBITOR” (Novartis AG, priority 2017, published 2020)

Legend:
[1] = system: phospho-EGFR (EGFR Y1068); assay: Western blot of phospho-EGFR after 72 hours of treatment; format: cell-based; settings: PC-14, NCI-H1975, HCC827, HCC4006, immunoblot
Procedure: NCI-H1975 (having mutations L858R, T790M), PC-14 (having mutations ex 19 del or exon 19 deletion), HCC827 (having mutation exl9del) and HCC4006 (having mutation exl9del) cells were cultured in RPMI-1640 growth medium (ATCC, catalog number 20-2001), supplemented with 10% fetal bovine serum (GIBCO, catalog number F4135) at 37° C. in a humidified 5% CO2 incubator. For the mechanistic studies, cells were seeded into tissue culture treated 6-well plates (Corning 3506) at a densities of 400k, 400k, 100K and 50k cells per well for HCC827, NCI-H1975, HCC4006 and PC-9 (having mutation exon 19 deletion) respectively, and allowed to attach overnight. […] After 72 hours of treatment, cells were lysed in 100 μl per well RIPA buffer (Sigma R0278) containing protease inhibitor cocktail (Sigma P8340), phosphatase inhibitor cocktail 2(Sigma P5726) and phosphatase inhibitor cocktail 3 (Sigma P0044). Cells were lysed on ice for 10 minutes, with scraping using a Cell Lifter (Corning 3008). Lysates were then micro-centrifuged at 14000rpm in an Eppendorf 5417R micro-centrifuge at 4° C.

[2] = system: EGFR mutant NSCLC cell lines (PC9, HCC827, HCC4006, MGH707); assay: Long-term viability study (confluence by incucyte zoom, four weeks); format: cell-based
Procedure: PC9 (3,000/well), HCC827 (10,000/well), HCC4006 (5000/well), and MGH707 (5000/well) cells were plated into 96-well plates and the following day treated with EGF816 (300nM) either alone or in combination with LEE011 (1000 nM) for four weeks. Drug was refreshed twice per week. Cell confluence was used as a surrogate for cell number and was measured by an incucyte zoom (Essen Biosciences) at the initiation of treatment and then twice (2x) per week thereafter.

[3] = system: NCI-H1975 tumors (EGFR L858R, T790M); assay: In vivo efficacy study, NCI-H1975 xenograft tumor volume; design: species or system mouse; settings: Compound A 10 or 30 mg/kg p.o. qd, Compound B 80 mg/kg free base p.o. qd
Procedure: The tumor cells were cultured in tissue culture flasks in a humidified incubator at 37° C., in an atmosphere of 5% CO2 and 95% air.

EGFR-mutant NSCLC = settings: 100 mg daily versus 150 mg daily, previous study; cited from earlier work
[4] = system: EGFR mutant (L858R, exl9del and T790M) cancer models; settings: cited from earlier work
[5] = system: advanced non-small cell lung cancer (NSCLC) harboring T790M; settings: patients with advanced NSCLC harboring T790M; cited from earlier work
[6] = system: Epidermal Growth Factor Receptor (EGFR); settings: L858R, exl9del, T790M versus WT; cited from earlier work
phospho-Rb (Rb S807/811) = assay: Western blot of phospho-Rb after 72 hours of treatment; format: cell-based; settings: PC-14, NCI-H1975, HCC827, HCC4006, immunoblot
Procedure: Several EGFR mutant NSCLC cell lines were treated for 72 hours with the EGF816 and LEE011 combination at different concentrations as follows. NCI-H1975 (having mutations L858R, T790M), PC-14 (having mutations ex 19 del or exon 19 deletion), HCC827 (having mutation exl9del) and HCC4006 (having mutation exl9del) cells were cultured in RPMI-1640 growth medium (ATCC, catalog number 20-2001), supplemented with 10% fetal bovine serum (GIBCO, catalog number F4135) at 37° C. in a humidified 5% CO2 incubator. For the mechanistic studies, cells were seeded into tissue culture treated 6-well plates (Corning 3506) at a densities of 400k, 400k, 100K and 50k cells per well for HCC827, NCI-H1975, HCC4006 and PC-9 (having mutation exon 19 deletion) respectively, and allowed to attach overnight. The cells were then exposed to a 3×3 matrix combination treatment of EGF816 and LEE011, at concentrations of 0, 0.12, 0.333 μM EGF816 vs. 0, 0.312, 2.5 μM LEE011. […]
Lysate' total protein content was determined by BCA assay (Pierce 23227), following the manufacturer's instructions, and samples were prepared for a western blot using Invitrogen LDS Sample Buffer (NP0007)) containing 200 mM DTT, boiled at 95° C. for 10 minutes, micro-centrifuged and 20 μg total protein loaded per well. […]

CYP3A4/5 = settings: cited from earlier work
[7] = single agent ribociclib, 3 weeks on/1 week off; cited from earlier work

Cc1cc(C(=O)Nc2nc3cccc(Cl)c3n2[C@@H]2CCCCN(C(=O)/C=C/CN(C)C)C2)ccn1 [EGF816, (R,E)-N-(7-chloro-1-(1-(4-(dimethylamino)but-2-enoyl)azepan-3-yl)-1H-benzo[d]imidazol-2-yl)-2-methylisonicotinamide]
EGFR phosphorylation (EGFR Y1068) [1]: inhibited in a dose dependent manner across all cell lines
regrowth of cells (confluence as surrogate for cell number) ([2]; EGF816 300nM alone or with LEE011 1000 nM): begin to slowly regrow
apoptosis and cell cycle arrest ([2]; EGF816 300nM, PC9, HCC827, HCC4006, MGH707): varying degrees of apoptosis and cell cycle arrest
tumor volume changes over time [3]: significant tumor regressions, which increased at higher doses
rates of rash and diarrhoea (EGFR-mutant NSCLC): lower rates of rash and diarrhoea were observed at 100 mg daily
tolerability, body weight ([4]; efficacious doses, xenograft models): well tolerated with no body weight loss observed at efficacious doses
anti-tumor efficacy in xenograft models ([4]; several xenograft models): Dose-dependent anti-tumor efficacy
antitumor activity in patients [5]: durable antitumor activity
selectivity for mutant EGFR over wild type EGFR [6]: selectively inhibits activating and acquired resistance mutants (L858R, exl9del and T790M), while sparing wild type (WT) EGFR

CN(C)C(=O)c1cc2cnc(Nc3ccc(N4CCNCC4)cn3)nc2n1C1CCCC1 [LEE011, 7-cyclopentyl-2-(5-piperazin-1-yl-pyridin-2-ylamino)-7H-pyrrolo[2,3-d]pyrimidine-6-carboxylic acid dimethylamide]
Rb phosphorylation (Rb S807/811) (phospho-Rb (Rb S807/811)): inhibited by LEE011 single agent in 3 out of 4 cell lines
tumor volume changes over time [3]: no single agent activity
CYP3A4/5 inhibition (CYP3A4/5): inhibitor of CYP3A4/5
MTD [7]: 900 mg qd
